The record followed here is patent US20070231202A1 (priority 2006, published 2007).

The test system of experiment [1] is prions (10% brain homogenates from hamsters with scrapie). The format is in vivo, hamster. The note with it: hydrogen peroxide vapor of higher concentrations and/or higher plasma density.
Another experiment has as its system prions. The note with it: 59% solution admitted into sterilization chamber under vacuum, vapor at one point excited into plasma.

On to `OO` [hydrogen peroxide], for which the “inactivating prions, rendering article non-infectious for prion diseases” value in experiment [1] is on record as “effective in inactivating prions”. Also, the “inactivation of prions on the instruments” value in the experiment on prions was “failed to sufficiently inactivate prions”.
